Assay results: PubChem BioAssay (NCI)
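Following 48 hours of exposure in 96-well plates, responses at five concentrations were used to interpolate endpoints linearly. Definition used: TGI = concentration required for complete inhibition of growth.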

Experiments:
Assay in all cases: NCI anticancer screen, dose series, 48 h
HOP-18 NSCLC = system: HOP-18 NSCLC
M19-MEL melanoma = system: M19-MEL melanoma
SW-620 colon = system: SW-620 colon
DMS 114 small cell lung = system: DMS 114 small cell lung
EKVX NSCLC = system: EKVX NSCLC
SF-295 CNS = system: SF-295 CNS
SK-MEL-28 melanoma = system: SK-MEL-28 melanoma
SR leukemia = system: SR leukemia
NCI-H226 lung = system: NCI-H226 lung
NCI-H460 lung = system: NCI-H460 lung
K-562 leukemia = system: K-562 leukemia
SK-MEL-2 melanoma = system: SK-MEL-2 melanoma
COLO 205 colon = system: COLO 205 colon
DMS 273 small cell lung = system: DMS 273 small cell lung
SF-539 CNS = system: SF-539 CNS
UACC-257 melanoma = system: UACC-257 melanoma
OVCAR-8 ovarian = system: OVCAR-8 ovarian
KM12 colon = system: KM12 colon
M14 melanoma = system: M14 melanoma
IGROV1 ovarian = system: IGROV1 ovarian
SK-OV-3 ovarian = system: SK-OV-3 ovarian
NCI-H522 lung = system: NCI-H522 lung
786-0 renal = system: 786-0 renal
RPMI-8226 leukemia = system: RPMI-8226 leukemia
MOLT-4 leukemia = system: MOLT-4 leukemia
RXF 393 renal = system: RXF 393 renal
U251 CNS = system: U251 CNS
LXFL 529 NSCLC = system: LXFL 529 NSCLC
SK-MEL-5 melanoma = system: SK-MEL-5 melanoma
HCC-2998 colon = system: HCC-2998 colon
DLD-1 colon = system: DLD-1 colon
HT29 colon = system: HT29 colon
OVCAR-5 ovarian = system: OVCAR-5 ovarian
HOP-92 NSCLC = system: HOP-92 NSCLC
SNB-19 CNS = system: SNB-19 CNS
A549 NSCLC = system: A549 NSCLC
SN12C renal = system: SN12C renal
UO-31 renal = system: UO-31 renal
TK-10 renal = system: TK-10 renal
HCT-15 colon = system: HCT-15 colon
KM20L2 colon = system: KM20L2 colon
NCI-H23 lung = system: NCI-H23 lung
CCRF-CEM leukemia = system: CCRF-CEM leukemia
ACHN renal = system: ACHN renal
OVCAR-3 ovarian = system: OVCAR-3 ovarian
MALME-3M melanoma = system: MALME-3M melanoma
HL-60(TB) leukemia = system: HL-60(TB) leukemia
SF-268 CNS = system: SF-268 CNS
UACC-62 melanoma = system: UACC-62 melanoma
SNB-75 CNS = system: SNB-75 CNS
HCT-116 colon = system: HCT-116 colon
OVCAR-4 ovarian = system: OVCAR-4 ovarian
LOX IMVI melanoma = system: LOX IMVI melanoma
SNB-78 CNS = system: SNB-78 CNS

Compound: C#C[C@]1(O)CCCC2=CC(=O)CC[C@@]21C
- TGI (HOP-18 NSCLC): > 100 µM
- TGI (M19-MEL melanoma): > 100 µM
- TGI (SW-620 colon): > 100 µM
- TGI (DMS 114 small cell lung): > 100 µM
- TGI (EKVX NSCLC): > 100 µM
- TGI (SF-295 CNS): > 100 µM
- TGI (SK-MEL-28 melanoma): > 100 µM
- TGI (SR leukemia): > 100 µM
- TGI (NCI-H226 lung): > 100 µM
- TGI (NCI-H460 lung): > 100 µM
- TGI (K-562 leukemia): > 100 µM
- TGI (SK-MEL-2 melanoma): > 100 µM
- TGI (COLO 205 colon): > 100 µM
- TGI (DMS 273 small cell lung): > 100 µM
- TGI (SF-539 CNS): > 100 µM
- TGI (UACC-257 melanoma): > 100 µM
- TGI (OVCAR-8 ovarian): > 100 µM
- TGI (KM12 colon): > 100 µM
- TGI (M14 melanoma): > 100 µM
- TGI (IGROV1 ovarian): > 100 µM
- TGI (SK-OV-3 ovarian): > 100 µM
- TGI (NCI-H522 lung): > 100 µM
- TGI (786-0 renal): > 100 µM
- TGI (RPMI-8226 leukemia): > 100 µM
- TGI (MOLT-4 leukemia): > 100 µM
- TGI (RXF 393 renal): > 100 µM
- TGI (U251 CNS): > 100 µM
- TGI (LXFL 529 NSCLC): > 100 µM
- TGI (SK-MEL-5 melanoma): > 100 µM
- TGI (HCC-2998 colon): > 100 µM
- TGI (DLD-1 colon): > 100 µM
- TGI (HT29 colon): > 100 µM
- TGI (OVCAR-5 ovarian): > 100 µM
- TGI (HOP-92 NSCLC): > 100 µM
- TGI (SNB-19 CNS): > 100 µM
- TGI (A549 NSCLC): > 100 µM
- TGI (SN12C renal): > 100 µM
- TGI (UO-31 renal): > 100 µM
- TGI (TK-10 renal): > 100 µM
- TGI (HCT-15 colon): > 100 µM
- TGI (KM20L2 colon): > 100 µM
- TGI (NCI-H23 lung): > 100 µM
- TGI (CCRF-CEM leukemia): > 100 µM
- TGI (ACHN renal): > 100 µM
- TGI (OVCAR-3 ovarian): > 100 µM
- TGI (MALME-3M melanoma): > 100 µM
- TGI (HL-60(TB) leukemia): > 100 µM
- TGI (SF-268 CNS): > 100 µM

Compound: COc1nc(=O)n(COC(CO)CN2C(=O)c3ccccc3C2=O)cc1Cc1cccc(OCc2ccccc2)c1 (stereo not drawn)
- TGI (UACC-62 melanoma): 28.5 µM
- TGI (HOP-18 NSCLC): 72.5 µM
- TGI (SNB-75 CNS): 46.2 µM
- TGI (M19-MEL melanoma): 45.2 µM
- TGI (SW-620 colon): > 100 µM
- TGI (HCT-116 colon): > 100 µM
- TGI (DMS 114 small cell lung): 59.1 µM
- TGI (EKVX NSCLC): > 100 µM
- TGI (SF-295 CNS): 48.9 µM
- TGI (SK-MEL-28 melanoma): 36.2 µM
- TGI (NCI-H226 lung): 54.2 µM
- TGI (K-562 leukemia): 60.1 µM
- TGI (SK-MEL-2 melanoma): 31.3 µM
- TGI (COLO 205 colon): 37.4 µM
- TGI (DMS 273 small cell lung): 45.4 µM
- TGI (SF-539 CNS): 34.2 µM
- TGI (OVCAR-8 ovarian): > 100 µM
- TGI (KM12 colon): 91.3 µM
- TGI (M14 melanoma): 43.6 µM
- TGI (IGROV1 ovarian): 58.8 µM
- TGI (SK-OV-3 ovarian): 90.6 µM
- TGI (RPMI-8226 leukemia): 42.3 µM
- TGI (MOLT-4 leukemia): 49.4 µM
- TGI (U251 CNS): 51.8 µM
- TGI (OVCAR-4 ovarian): 57.8 µM
- TGI (LXFL 529 NSCLC): > 100 µM
- TGI (SK-MEL-5 melanoma): 30.5 µM
- TGI (HCC-2998 colon): 43 µM
- TGI (DLD-1 colon): > 100 µM
- TGI (HT29 colon): > 100 µM
- TGI (HOP-92 NSCLC): 45.2 µM
- TGI (SNB-19 CNS): > 100 µM
- TGI (A549 NSCLC): 75.8 µM
- TGI (LOX IMVI melanoma): 41.5 µM
- TGI (SN12C renal): 58.5 µM
- TGI (UO-31 renal): 52.4 µM
- TGI (TK-10 renal): > 100 µM
- TGI (HCT-15 colon): > 100 µM
- TGI (KM20L2 colon): 55.7 µM
- TGI (NCI-H23 lung): > 100 µM
- TGI (SNB-78 CNS): > 100 µM
- TGI (CCRF-CEM leukemia): 60.2 µM
- TGI (ACHN renal): 59.8 µM
- TGI (OVCAR-3 ovarian): 58.9 µM
- TGI (HL-60(TB) leukemia): 41.8 µM
